Data from patent US8017612B2, “Piperazine compound and use thereof as a HCV polymerase inhibitor” (priority 2006, dated 2011).

Assays:
[1] = target: T1, HCV polymerase (NS5B) type 1a (Hepatitis C virus genotype 1a, UniProt P26664); test: Assay of enzyme (HCV polymerase) inhibitory activity, type 1a enzyme; assay type: biochemical, HCV type 1a (cloned from the blood of patients); details: HCV polymerase inhibitory activity IC50, 1a, type 1a enzyme
T1 construct: made in house; host or cells: Escherichia coli (by the 'similar method' of the 1b enzyme)
Outline: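 IC50 values derive from radioactivity of newly synthesized RNA with versus without test compound. The enzyme was C-terminally truncated type 1a NS5B, 1.5 μg/ml, run 60 min at 25° C with 3H-UTP-labelled nucleotides.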

[2] = target: T2, HCV polymerase (NS5B) type 1b (Hepatitis C virus genotype 1b, UniProt P26663); test: Assay of enzyme (HCV polymerase) inhibitory activity, type 1b enzyme; assay type: biochemical, HCV BK strain (type 1b); details: HCV polymerase inhibitory activity IC50, 1b, type 1b enzyme
T2 construct: a region encoding NS5B (J Virol 1991 March, 65(3), 1105-13, 544 amino acids after deletion of 47 amino acids on the C-terminal); 6xHis (C); made in house; host or cells: Escherichia coli
Outline: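 Polymerase activity was followed as radiolabelled UTP incorporation by E. coli-expressed, His-tagged NS5B of HCV type 1b lacking its last 47 residues. Conditions: 2 μM UTP, 50 μM other NTPs, Mg2+ buffer at pH 7.5, 25 °C for 60 min. Inhibition relative to compound-free reactions gave IC50.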

Structure (SMILES)	IC50 [1]	IC50 [2]
CCC(F)(F)c1ccc(CNC(=O)[C@H]2CN(C(=O)N3CC(C(=O)O)C3)CCN2S(=O)(=O)c2ccc(OC(F)(F)F)cc2)cc1 [Example 705, 1-[(R)-3-[4-(1,1-difluoro-propyl)-benzylcarbamoyl]-4-(4-trifluoromethoxy-benzenesulfonyl)-piperazine-1-carbonyl]-azetidine-3-carboxylic acid]	> 1000 nM	> 1000 nM
CCC(F)(F)c1ccc(CNC(=O)[C@H]2CN(C(=O)N3CCC(C(=O)O)CC3)CCN2S(=O)(=O)c2ccc(OC(F)(F)F)cc2)cc1 [Example 706, 1-[(R)-3-[4-(1,1-difluoro-propyl)-benzylcarbamoyl]-4-(4-trifluoromethoxy-benzenesulfonyl)-piperazine-1-carbonyl]-piperidine-4-carboxylic acid]	> 1000 nM	> 1000 nM
CCC(F)(F)c1ccc(CNC(=O)[C@H]2CN(c3cnc4ncncc4n3)CCN2S(=O)(=O)c2ccc(OC(F)(F)F)cc2)cc1 [Example 707, (R)-4-pteridin-6-yl-1-(4-trifluoromethoxy-benzenesulfonyl)-piperazine-2-carboxylic acid 4-(1,1-difluoro-propyl)-benzylamide]	< 100 nM	< 100 nM
CCC(F)(F)c1ccc(CNC(=O)[C@H]2CN(c3cnc4cncnc4n3)CCN2S(=O)(=O)c2ccc(I)cc2)cc1 [Example 708, (R)-1-(4-iodo-benzenesulfonyl)-4-pteridin-7-yl-piperazine-2-carboxylic acid 4-(1,1-difluoro-propyl)-benzylamide]	< 100 nM	< 100 nM
CCC(F)(F)c1ccc(CNC(=O)[C@H]2CN(c3cnc4cncnc4n3)CCN2S(=O)(=O)c2ccc(-c3cccs3)cc2)cc1 [Example 709, (R)-4-pteridin-7-yl-1-(4-thiophen-2-yl-benzenesulfonyl)-piperazine-2-carboxylic acid 4-(1,1-difluoro-propyl)-benzylamide]	< 100 nM	< 100 nM
CCOC(=O)c1ccc2ncc(N3CCN(S(=O)(=O)c4ccc(OC(F)(F)F)cc4)[C@@H](C(=O)NCc4ccc(C(F)(F)CC)cc4)C3)nc2c1 [Example 710, 3-[(R)-3-[4-(1,1-difluoro-propyl)-benzylcarbamoyl]-4-(4-trifluoromethoxy-benzenesulfonyl)-piperazin-1-yl]-quinoxaline-6-carboxylic acid ethyl ester]	100 to 1000 nM	100 to 1000 nM
CCC(F)(F)c1ccc(CNC(=O)[C@H]2CN(c3cnc4ccc(C(=O)O)cc4n3)CCN2S(=O)(=O)c2ccc(OC(F)(F)F)cc2)cc1 [Example 711, 3-[(R)-3-[4-(1,1-difluoro-propyl)-benzylcarbamoyl]-4-(4-trifluoromethoxy-benzenesulfonyl)-piperazin-1-yl]-quinoxaline-6-carboxylic acid]	100 to 1000 nM	< 100 nM
CCC(F)(F)c1ccc(CNC(=O)[C@H]2CN(c3cnc4cc(C(=O)O)ccc4n3)CCN2S(=O)(=O)c2ccc(OC(F)(F)F)cc2)cc1 [Example 712, 2-[(R)-3-[4-(1,1-difluoro-propyl)-benzylcarbamoyl]-4-(4-trifluoromethoxy-benzenesulfonyl)-piperazin-1-yl]-quinoxaline-6-carboxylic acid]	< 100 nM	< 100 nM
CCC(F)(F)c1ccc(CNC(=O)[C@H]2CN(c3cnc4cnccc4n3)CCN2S(=O)(=O)c2ccc(Cl)cc2)cc1 [Example 713, (R)-1-(4-chloro-benzenesulfonyl)-4-pyrido[3,4-b]pyrazin-2-yl-piperazine-2-carboxylic acid 4-(1,1-difluoro-propyl)-benzylamide]	< 100 nM	< 100 nM
CCC(F)(F)c1ccc(CNC(=O)[C@H]2CN(c3cnc4cnccc4n3)CCN2S(=O)(=O)c2ccc(C(C)(C)C)cc2)cc1 [Example 714, (R)-1-(4-tert-butyl-benzenesulfonyl)-4-pyrido[3,4-b]pyrazin-2-yl-piperazine-2-carboxylic acid 4-(1,1-difluoro-propyl)-benzylamide]	< 100 nM	< 100 nM
CCC(F)(F)c1ccc(CNC(=O)[C@H]2CN(c3nc4ccncc4s3)CCN2S(=O)(=O)c2ccc(OC(F)(F)F)cc2)cc1 [Example 715, (R)-4-thiazolo[5,4-c]pyridin-2-yl-1-(4-trifluoromethoxy-benzenesulfonyl)-piperazine-2-carboxylic acid 4-(1,1-difluoro-propyl)-benzylamide]	< 100 nM	< 100 nM
CC(=O)N1CCN(S(=O)(=O)c2ccc(OC(F)(F)F)cc2)[C@@H](C(=O)NCCCc2cccc(O)c2)C1 [Example 716, (R)-4-acetyl-1-(4-trifluoromethoxy-benzenesulfonyl)-piperazine-2-carboxylic acid [3-(3-hydroxy-phenyl)-propyl]-amide]	> 1000 nM	> 1000 nM
CC(=O)N1CCN(S(=O)(=O)c2ccc(OC(F)(F)F)cc2)[C@@H](C(=O)NCCCc2ccc(O)cc2)C1 [Example 717, (R)-4-acetyl-1-(4-trifluoromethoxy-benzenesulfonyl)-piperazine-2-carboxylic acid [3-(4-hydroxy-phenyl)-propyl]-amide]	> 1000 nM	> 1000 nM
CCCc1ccc(CNC(=O)[C@H]2CN(C(C)=O)CCN2S(=O)(=O)c2ccc(OC(F)(F)F)cc2)cn1 [Example 718, (R)-4-acetyl-1-(4-trifluoromethoxy-benzenesulfonyl)-piperazine-2-carboxylic acid (6-propyl-pyridin-3-ylmethyl)-amide]	> 1000 nM	100 to 1000 nM
CC(=O)N1CCN(S(=O)(=O)c2ccc(OC(F)(F)F)cc2)[C@@H](C(=O)NCc2cnc(C)cn2)C1 [Example 719, (R)-4-acetyl-1-(4-trifluoromethoxy-benzenesulfonyl)-piperazine-2-carboxylic acid (5-methyl-pyrazin-2-ylmethyl)-amide]	> 1000 nM	> 1000 nM
CCCc1ccc(CNC(=O)[C@H]2CN(c3cnc4cncnc4n3)CCN2S(=O)(=O)c2ccc(OC(F)(F)F)cc2)cn1 [Example 720, (R)-4-pteridin-7-yl-1-(4-trifluoromethoxy-benzenesulfonyl)-piperazine-2-carboxylic acid (6-propyl-pyridin-3-ylmethyl)-amide]	< 100 nM	< 100 nM
Cc1cnc(CNC(=O)[C@H]2CN(c3cnc4cncnc4n3)CCN2S(=O)(=O)c2ccc(OC(F)(F)F)cc2)cn1 [Example 721, (R)-4-pteridin-7-yl-1-(4-trifluoromethoxy-benzenesulfonyl)-piperazine-2-carboxylic acid (5-methyl-pyrazin-2-ylmethyl)-amide]	> 1000 nM	> 1000 nM
CCCc1ccc(CNC(=O)[C@H]2CN(c3cnc4cncnc4n3)CCN2S(=O)(=O)c2ccc(OC(F)(F)F)cc2)cc1N [Example 722, (R)-4-pteridin-7-yl-1-(4-trifluoromethoxy-benzenesulfonyl)-piperazine-2-carboxylic acid 3-amino-4-propyl-benzylamide]	100 to 1000 nM	< 100 nM
CCCc1ccc(CNC(=O)[C@H]2CN(c3cnc4cncnc4n3)CCN2S(=O)(=O)c2ccc(OC(F)(F)F)cc2)cc1O [Example 723, (R)-4-pteridin-7-yl-1-(4-trifluoromethoxy-benzenesulfonyl)-piperazine-2-carboxylic acid 3-hydroxy-4-propyl-benzylamide]	100 to 1000 nM	< 100 nM
CCC(F)(F)c1ccc(CNC(=O)[C@H]2CN(c3cnc4cncnc4n3)CCN2S(=O)(=O)c2ccc(-c3ccccc3O)cc2)cc1 [Example 724, (R)-1-(2′-hydroxy-biphenyl-4-sulfonyl)-4-pteridin-7-yl-piperazine-2-carboxylic acid 4-(1,1-difluoro-propyl)-benzylamide]	< 100 nM	< 100 nM
CCC(F)(F)c1ccc(CNC(=O)[C@H]2CN(c3cnc4cncnc4n3)CCN2S(=O)(=O)c2ccc(-c3cccc(O)c3)cc2)cc1 [Example 725, (R)-1-(3′-hydroxy-biphenyl-4-sulfonyl)-4-pteridin-7-yl-piperazine-2-carboxylic acid 4-(1,1-difluoro-propyl)-benzylamide]	< 100 nM	< 100 nM
CCC(F)(F)c1ccc(CNC(=O)[C@H]2CN(c3cnc4cnccc4n3)CCN2S(=O)(=O)c2ccc([N+](=O)[O-])cc2)cc1 [Example 726, (R)-1-(4-nitro-benzenesulfonyl)-4-pyrido[3,4-b]pyrazin-2-yl-piperazine-2-carboxylic acid 4-(1,1-difluoro-propyl)-benzylamide]	< 100 nM	< 100 nM
CCC(F)(F)c1ccc(CNC(=O)[C@H]2CN(c3cnc4cnccc4n3)CCN2S(=O)(=O)c2ccc(-c3ccccc3)cc2)cc1 [Example 727, (R)-1-(biphenyl-4-sulfonyl)-4-pyrido[3,4-b]pyrazin-2-yl-piperazine-2-carboxylic acid 4-(1,1-difluoro-propyl)-benzylamide]	< 100 nM	< 100 nM
CCCc1ccc(CNC(=O)[C@H]2CN(c3ccc(C(=O)OC(C)(C)C)s3)CCN2S(=O)(=O)c2ccc(OC(F)(F)F)cc2)cc1 [Example 728, 5-[(R)-3-(4-propyl-benzylcarbamoyl)-4-(4-trifluoromethoxy-benzenesulfonyl)-piperazin-1-yl]-thiophene-2-carboxylic acid tert-butyl ester]	100 to 1000 nM	100 to 1000 nM
